Molecular target: T1, TRPC6 channel (Homo sapiens, UniProt Q9Y210)
T1 construct: expressed in transfected cells; host or cells: HEK293
T1 sequence (Q9Y210 1-931): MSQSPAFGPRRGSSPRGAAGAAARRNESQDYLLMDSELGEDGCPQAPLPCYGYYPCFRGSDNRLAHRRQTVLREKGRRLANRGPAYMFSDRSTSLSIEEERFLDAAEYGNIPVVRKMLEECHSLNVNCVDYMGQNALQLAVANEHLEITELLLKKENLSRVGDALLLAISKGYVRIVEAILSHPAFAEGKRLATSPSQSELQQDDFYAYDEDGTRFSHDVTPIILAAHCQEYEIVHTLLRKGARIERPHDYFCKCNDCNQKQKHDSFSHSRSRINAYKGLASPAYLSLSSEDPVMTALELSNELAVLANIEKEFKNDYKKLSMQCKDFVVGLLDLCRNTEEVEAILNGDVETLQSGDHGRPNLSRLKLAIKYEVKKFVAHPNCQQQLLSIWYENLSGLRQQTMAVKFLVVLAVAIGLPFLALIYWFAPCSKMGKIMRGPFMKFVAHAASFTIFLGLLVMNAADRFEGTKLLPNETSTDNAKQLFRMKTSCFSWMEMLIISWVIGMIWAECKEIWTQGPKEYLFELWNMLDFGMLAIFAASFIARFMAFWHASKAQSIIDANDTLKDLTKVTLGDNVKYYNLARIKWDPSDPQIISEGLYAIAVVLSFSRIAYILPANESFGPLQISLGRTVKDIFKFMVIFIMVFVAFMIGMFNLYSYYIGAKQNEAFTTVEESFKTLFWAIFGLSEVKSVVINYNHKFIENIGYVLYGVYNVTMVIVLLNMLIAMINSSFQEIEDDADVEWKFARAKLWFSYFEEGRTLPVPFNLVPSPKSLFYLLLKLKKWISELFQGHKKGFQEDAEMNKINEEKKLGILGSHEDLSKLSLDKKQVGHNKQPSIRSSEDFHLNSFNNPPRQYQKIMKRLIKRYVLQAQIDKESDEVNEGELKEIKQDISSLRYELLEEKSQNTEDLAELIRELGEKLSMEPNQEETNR
Experiment: Calcium assay using HEK293 cells transiently expressing TRPC6 channel, carbachol activation (Fura-2)
Type: cell-based
Conditions: 10 μM test compound, carbachol
Procedure: A TRPC6 gene was introduced into HEK293 cells (cells derived from human fetal kidney) by lipofection, and the TRPC6 channel was expressed on the cell membrane. Specifically, the plasmid DNA of TRPC6 (pCI-neo; Promega Corporation) was introduced into HEK293 cells using a lipofection reagent, and then cultured at 37° C. for 24 to 48 hours to express the TRPC6 channel on the cell membrane. In the same manner, HEK293 cells into which the TRPC3 gene was introduced were cultured, and the TRPC3 channel was expressed on the cell membrane.
The cultured cells were peeled off with trypsin and seeded on a cover glass again, followed by culturing the cells at 37° C. for 3 hours again. A Fura-2 AM calcium indicator was added to the medium, and the cells were cultured at 37° C. for 30 minutes to allow the cells to incorporate the indicator. For the extracellular solution, a Ca^2+-containing solution and a Ca^2+-free solution were prepared. • Ca^2+-containing solution: 2 mM CaCl2, 132 mM NaCl, 4 mM KCl, 1 mM MgCl2, 5 mM glucose, 5 mM HEPES (pH 7.4) • Ca^2+-free solution: 132 mM NaCl, 4 mM KCl, 1 mM MgCl2, 5 mM glucose, 5 mM HEPES (pH 7.4)
After the cells were added to the Ca^2+-containing solution, the following operation was performed while the fluorescence intensity (510 nm) of Fura-2 was measured at room temperature with an ARGUS CA-20 (Hamamatsu Photonics K.K.) over time. • 0 minutes: TRPC3-expressing cells or TRPC6-expressing cells are placed in a measurement chamber that contains the Ca^2+-containing solution. • After 30 seconds: The Ca^2+-containing solution is replaced with the Ca^2+-free solution. • After 1 minute: A predetermined amount of a test compound is added to the Ca^2+-free solution. • After 3 minutes: Carbachol (100 μM) is added to the Ca^2+-free solution. • After 7 minutes: The Ca^2+-free solution is replaced with the Ca^2+-containing solution that contains a test compound and carbachol […]. • After 15 minutes: Measurement is ended.
Compound 011 was used as the test compound, and the amount of the test compound added was 0.01, 0.1, 0.5, 1.0, 5.0, 10, or 50 μM. For the control, 0.1% DMSO was used in place of the test compound. Carbachol (cch) is a TRPC-channel-activating reagent. Applying carbachol to cells opens the TRPC channel and allows a large amount of Ca^2+ in the extracellular solution to flow into the cells. Fura-2 AM has high cell membrane permeability due to the presence of an AM group (acetoxymethyl group), and is thus easily incorporated into the cells. The AM group is hydrolyzed in the cells to become Fura-2. Thus, Fura-2 can form a chelate with Ca^2+ and is also unlikely to leak out of the cells due to the loss of the AM group.
In the same manner as in Test Example 1, the maximum calcium ion concentration was measured after 7 minutes from the start of measurement (i.e., after replacement with the Ca^2+-containing solution) by using TRPC6-expressing cells prepared in the same manner as in Test Example 1, except that 10 μM of Pyr 4 and 10 μM of compound 011, 031, 041, or 191 (test compound) were used. The average value of calcium ion concentrations up to 30 seconds after the start of measurement (the initial value of calcium ion concentration) was subtracted from the maximum calcium ion concentration, and the calculated value was determined to be the amount of increase in calcium ions. FIG. 3 illustrates the results.
The calcium ion concentration was measured in the same manner as in Test Example 2, except that 10 μM of compound 011, 361, 362(E), 362(Z), 371, 372(Z), 381, or 401 (test compound) was used, and Pyr 4 was not used, thereby determining the amount of increase in calcium ions. Table 2 illustrates the amount of increase in calcium ions for each test compound relative to the amount of increase in calcium ions in the control (DMSO) taken as 100%.

Row | Structure (SMILES) | suppression of TRPC6 channel activation (decrease in calcium ion influx, FIG. 3)
1 | C[C@H]1CN(c2ncc(C(=O)O)cc2Cl)CCN1c1noc2cccc(C(F)(F)F)c12 [Compound 031, (S)-5-chloro-6-(3-methyl-4-(4-(trifluoromethyl)benzo[d]isoxazol-3-yl)piperazin-1-yl) nicotinic acid] | activation of the TRPC6 channel was suppressed
2 | C[C@@H]1CN(c2ncc(C(=O)O)cc2Cl)CCN1c1noc2cccc(C(F)(F)F)c12 [Compound 041, (R)-5-chloro-6-(3-methyl-4-(4-(trifluoromethyl)benzo[d]isoxazol-3-yl)piperazin-1-yl) nicotinic acid] | activation of the TRPC6 channel was suppressed
3 | O=C(O)c1cnc(N2CC3CCC(C2)N3c2noc3cccc(C(F)(F)F)c23)c(Cl)c1 [Compound 191, 5-chloro-6-(8-(4-(trifluoromethyl)benzo[d]isoxazol-3-yl)-3,8-diazabicyclo[3,2,1]octan-3-yl)nicotinic acid] | activation of the TRPC6 channel was suppressed

Same assay, conditions: 10 μM test compound, carbachol, TRPC6-expressing cells

Row | Structure (SMILES) | amount of increase in calcium ions relative to control (DMSO) taken as 100% [%]
4 | FC(F)(F)c1cccc2onc(N3CC=C(c4ccccc4Cl)CC3)c12 [Compound 361, 3-(4-(2-chlorophenyl)-3,6-dihydropyridin-1(2H)-yl)-4-(trifluoromethyl)benzo[d]isoxazole] | 72
5 | O/N=C(\c1c(F)cccc1C(F)(F)F)N1CC=C(c2ccccc2Cl)CC1 [Compound 362(E), E-(4-(2-chlorophenyl)-3,6-dihydropyridin-1(2H)-yl)(2-fluoro-6-(trifluoromethyl)phenyl)methanone oxime] | 65
6 | O/N=C(/c1c(F)cccc1C(F)(F)F)N1CC=C(c2ccccc2Cl)CC1 [Compound 362(Z), (Z)-(4-(2-chlorophenyl)-3,6-dihydropyridin-1(2H)-yl)(2-fluoro-6-(trifluoromethyl)phenyl)methanone oxime] | 54
7 | CCOC(=O)c1cnc(N2CCN(c3noc4cccc(C(F)(F)F)c34)CC2=O)c(Cl)c1 [Compound 371, ethyl 5-chloro-6-(2-oxo-4-(4-(trifluoromethyl)benzo[d]isoxazol-3-yl)piperazin-1-yl) nicotinate] | 61
8 | CCOC(=O)c1cnc(N2CCN(/C(=N\O)c3c(F)cccc3C(F)(F)F)CC2=O)c(Cl)c1 [Compound 372(Z), ethyl (Z)-5-chloro-6-(4-((2-fluoro-6-(trifluoromethyl)phenyl)(hydroxyimino)methyl)-2-oxopiperazin-1-yl)nicotinate] | 72
9 | O=C(O)c1cnc(N2CCN(c3noc4cccc(C(F)(F)F)c34)CC2=O)c(Cl)c1 [Compound 381, 5-chloro-6-(2-oxo-4-(4-(trifluoromethyl)benzo[d]isoxazol-3-yl)piperazin-1-yl)nicotinic acid] | 57
10 | O=C(O)c1ccc(C2=CCN(c3noc4cccc(C(F)(F)F)c34)CC2)c(Cl)c1 [Compound 401, 3-chloro-4-(1-(4-(trifluoromethyl)benzo[d]isoxazol-3-yl)-1,2,3,6-tetrahydropyridin-4-yl)benzoic acid] | 19

Molecular target: T1, TRPC6 channel
Experiment: Calcium assay using HEK293 cells transiently expressing TRPC6 channel, ATP as activating reagent
Type: cell-based
Conditions: 10 μM test compound
Procedure: In the same manner as in Test Example 2, the calcium ion concentration was measured, except that 10 μM of Pyr 4 and 10 μM of compound 202(E), 061, or 071 (test compound) were used, and ATP was used as a TRPC channel activating reagent instead of carbachol, thereby determining the amount of increase in calcium ions. FIG. 4 illustrates the results.

Row | Structure (SMILES) | suppression of TRPC6 channel activation (decrease in calcium ion influx, FIG. 4)
11 | Clc1ccccc1N1CCN(c2noc3cccc(Cl)c23)CC1 [Compound 061, 4-chloro-3-(4-(2-chlorophenyl)piperazin-1-yl)benzo[d]isoxazole] | activation of the TRPC6 channel was suppressed
12 | Clc1cccnc1N1CCN(c2noc3cccc(Cl)c23)CC1 [Compound 071, 4-chloro-3-(4-(3-chloropyridin-2-yl)piperazin-1-yl)benzo[d]isoxazole] | activation of the TRPC6 channel was suppressed
13 | O/N=C(\c1cccc(Cl)c1Cl)N1CCN(c2ccccc2Cl)CC1 [Compound 202(E), (E)-(4-(2-chlorophenyl)piperazin-1-yl)(2,3-dichlorophenyl)methanone oxime] | activation of the TRPC6 channel was suppressed

Test system: cardiac fibrosis induced by pressure overload
Experiment: not given
Conditions: mice, NPL 1 and 2; cited from earlier work

Row | Structure (SMILES) | suppression of cardiac fibrosis induced by pressure overload
14 | CCOC(=O)c1cnn(-c2ccc(NC(=O)C(Cl)=C(Cl)Cl)cc2)c1C(F)(F)F [Pyr3] | potently suppresses cardiac fibrosis induced by pressure overload
